Values joined by “and” are separate entries in the source; they are usually repeats but may differ in a detail not shown here. Equal values may be shown once. “Also recorded” adds a separate entry of the source. Ends that are not written are not given here.
Legend:
[1] = tested on: S. pneumoniae serotype 3 (WU2); test: Combination therapy of moribund mice after intranasal S. pneumoniae WU2 infection (Example 2); format: in vivo
Source text: S. pneumoniae serotype 3 (WU2) was used for mouse infections as described previously (Rajam et al. J. Infect. Dis. 199:1233-1238, 1999). P4, a 28-amino-acid peptide, was synthesized, purified, and prepared for combination therapy as described previously (Carlone et al. Microb. Pathog. 44:186-196, 2008). Gamma globulin (intravenous immunoglobulin [IVIG]; Gamunex, Telecris, N.C.) was used as a source of Pnc serotype-specific polysaccharide antibodies (Frasch and Scott Clin. Diagn. Lab. Immunol. 11:1158-1164, 2004; Rajam et al., Clin. Vaccine Immunol. 14:1223-1227, 2007; Romero-Steiner et al., Clin. Diagn. Lab. Immunol. 10:1019-1024, 2003). Ceftriaxone (catalog no. C5793; Sigma-Aldrich, St. Louis, Mo.), an expanded-spectrum cephalosporin, was dissolved in phosphate-buffered saline (0.01 M), and working dilutions in phosphate-buffered saline were made for mouse inoculations.
Female Swiss Webster mice (Charles River Laboratories, Wilmington, Mass.) 6 to 10 weeks of age were used in this study. All experiments were approved by the Institutional Animal Care and Use Committee (IACUC) and conducted according to the institutional ethical guidelines for animal experiments and safety guidelines.
Intranasal infections of mice with a Pnc isolate were carried out by adopting the methodology described by Briles et al., 2003. Briefly, a mouse was injected intraperitoneally (ip) with 20 μl of 100-mg/ml ketamine hydrochloride (KETASET®; Wyeth). Once the mouse was lethargic, 40 μl of the bacterial suspension (˜2.1×10^7 cells/mouse) was dispensed drop by drop close to the nose, allowing the mouse to inhale the bacteria. Scruffiness combined with a hunched posture or lethargy indicated moribundity in a mouse. […] Control groups included untreated animals or animals that received P4 alone, IVIG alone, or ceftriaxone (at 0.3, 3.0, 300, or 3,000 μg/mouse) alone. Treatment groups included mice that received a single inoculum containing P4 and IVIG with or without ceftriaxone at one of three different doses (0.3, 3.0, or 300 μg/mouse).
Mice were restrained using a Tailveiner restrainer (model no. TV-150; Braintree Scientific, Braintree, Mass.). IVIG and/or P4 was administered intravenously (iv) using a 25-gauge needle and a 1-ml syringe. IVIG (100-μl volume/mouse) was administered first, followed 20 min later by P4 (50 μg in a 100-μl volume/mouse). Ceftriaxone was administered (ip in a 100-μl volume/mouse) 30 min after P4 administration. Animals were monitored daily for 7 days or (in the repeat infection study) 36 days post treatment for clinical signs of disease progression. For repeat therapy, mice rescued with P4 combination therapy were reinfected on day 28 post treatment and treated again with P4 combination therapy.
The in vivo combination therapy experiments were repeated three to five times, and repeat therapy was performed once. The numbers of moribund animals up to 7 and 36 days after the combination and repeat therapies, respectively, were recorded, and the data were analyzed for significant differences among various groups by using the paired two-sample t test for means in MICROSOFT® Excel 2003.

[2] = tested on: S. pneumoniae serotype 3 (WU2); test: Opsonophagocytic killing (OPK) assay with HL-60 cells differentiated into granulocytes; format: cell-based, Streptococcus pneumoniae
HL-60-derived monocytes = test: fOPA, OPU of N. meningitidis A Ps-coated beads; format: cell-based, human; conditions: P4 100 μg/mL; QC268 serum; FIG. 2C
Method: (§1) The flow cytometric opsonophagocytic assay (fOPA) was performed with HL-60 cells differentiated into granulocytes or monocytes as described by Martinez et al., Clin Diagn Lab Immunol 9:485-8, 2002; Martinez et al., Clin Vaccine Immunol 13:459-66, 2006; and Mezzatesta et al., Infect Immun 42:99-105, 1983. In-house quality-control sera (QC5 and QC268) were used as a source for serotypespecific antibodies against the capsular Ps of S. pneumoniae serotype 14 and Neisseria meningitides A, respectively. Polystyrene beads were covalently linked to S. pneumoniae and non-S. pneumoniae antigens, as described by Martinez et al., Clin Diagn Lab Immunol 9:485-8, 2002; and Martinez et al., Clin Vaccine Immunol 13:459-66, 2006 and used in fOPA.

[3] = tested on: freshly isolated granulocytes from human blood; test: fOPA, opsonophagocytic uptake (OPU) of S. pneumoniae serotype 14 Ps-coated beads; format: cell-based; conditions: P4 100 μg/mL
Method: as §1
Heparinized venous blood was obtained from the Emory Blood Donor Services. A leukocyte separation kit, HISTOPAQUE®-1119 (Sigma), was used to separate granulocytes from the blood, in accordance with the method recommended by the manufacturer.

anti-P4 IgG = conditions: serum 14 days post infection from mice treated with P4 therapy
Method: Blood samples from mice treated with P4 therapy were collected 14 days post infection, and the serum fractions were separated by adopting the methodology described previously (Rajam, 2009). An enzyme-linked immunosorbent assay (ELISA) was performed to detect and quantify antiprotein immunoglobulin G (IgG) as described previously, with minor modifications (Scott, et al., Clin. Diagn. Lab. Immunol. 12:1195-1201, 2005; Scott et al., J. Infect. Dis. 186:220-226, 2002). Briefly, ELISA plates were coated with the P4 peptide at a 5-μg/ml concentration. Plates were incubated at 4° C. overnight and used to detect and quantify anti-P4 IgG in mouse sera. Horseradish peroxidase-labeled anti-mouse IgG (Sigma, St. Louis, Mo.) was used as the reporter antibody. SUREBLUE® 3,3′,5,5′-tetramethylbenzidine (KPL, Gaithersburg, Md.) was used as the substrate, and 1 N HCl was used as the stop solution. Samples were assayed in triplicate, and suitable positive and negative controls were included.

[4] = tested on: S. pneumoniae serotype 3 (WU2); test: Test for bacteremia in blood of treated mice; format: in vivo; conditions: P4-treated mice
Method: Blood samples from P4-treated and untreated mice were collected (Rajam et al., J. Infect. Dis. 199:1233-1238, 2009), and […] aliquots of the heparinized blood samples were spread onto plates of blood agar (blood agar base plus 5% sheep blood plus gentamicin [2.5 mg/liter]). The plates were incubated for 18 to 24 hours at 37° C. in 5% CO^2, and bacteria were counted.

P4 toxicity test in mice = format: in vivo; conditions: ip, 1, 10, 100 and 1000 μg/mouse; 10-week-old ND4-SW mice
Method: At 72 hours, all the infected mice were moribund (n=60; moribund score, 2-3 [see below]). At 72 and 96 hours after infection, 40 animals were passively immunized with gamma globulin (100 μL/mouse; iv, n=20; ip, n=20). After a time lapse of 20 minutes, allowing for possible preopsonization in vivo, 20 of the passively immunized mice (intravenous (iv), n=10; intraperitoneal (ip), n=10) received P4 (100 μg; 100 μL/mouse) through an iv or ip route. Control mice were given DEPC water (100 μL) or P4 alone. Initially, P4 peptide was tested for toxicity in mice at 1, 10, 100, and 1000 μg. P4 was injected ip into 10-week-old ND4-SW mice at a constant volume of 100 μL.

[5] = tested on: S. pneumoniae serotype 3 (WU2); conditions: P4 100 μg/ml; PMNs from infected (1 and 2 hours postinfection) or uninfected mice; gamma globulin as IgG source; P<0.05
Method: We used the in vitro opsonophagocytic killing assay (OPKA) as described previously by Romero-Steiner et al. (Romero-Steiner et al., Clin. Diagn. Lab. Immunol. 4:415-422, 1997) with polymorphonuclear leukocytes (PMNs) isolated from mice (Devi et al., Indian J. Physiol. Pharmacol. 39:354-360, 1995). Peripheral blood samples were collected from mice 1 and 2 hours postinfection (with Pnc WU2) or from uninfected controls as described previously (Frasch and Scott, 2004), and the buffy coat fractions were separated (Devi et al, 1995) and used as the source of effector cells. Gamma globulin (Gamunex, Telecris, N.C.) was used as the serotype-specific antibody source. S. pneumoniae serotype 3 (WU2) was propagated, stored, and used in this assay as described previously (Rajam et al., 2007; Romero-Steiner, 2006). A 100-μg/ml P4 peptide solution was added to the OPKA mixture at the preopsonization stage, and the control wells received diethyl pyrocarbonate water.

[6] = tested on: HL-60-derived granulocytes; test: Flow cytometric opsonophagocytic assay (fOPA), respiratory burst with OXYBURST-labeled S. pneumoniae serotype 23F; format: cell-based, human; conditions: P4 100 μg/mL; QC2 serum; titrated out with antibody dilution; FIG. 2A
Method: as §1
A loopful of the frozen stock of S. pneumoniae serotype 23F was grown overnight (37° C. in 5% CO2) in Todd-Hewitt broth (Difco) supplemented with 0.5% yeast extract (THYE). A loopful of the overnight culture was transferred to 1 mL of fresh THYE broth and incubated for 3 hours. From this, 200 μL was transferred to 5 mL of THYE broth and incubated for 3 hours, after which 1 mL was transferred to 5 mL of THYE broth and incubated for another 3 hours (all incubations were done at 37° C. in 5% CO2). After the third passage, the bacterial suspension was centrifuged at 6000 g for 10 minutes and resuspended in 1 mL of 0.01 mol/L phosphate buffered saline (PBS). […]

## CO/N=C(\C(=O)N[C@@H]1C(=O)N2C(C(=O)O)=C(CSc3nc(=O)c(=O)[nH]n3C)CS[C@H]12)c1csc(N)n1 [ceftriaxone, Ceftriaxone]
[1]; ceftriaxone alone 0.3 μg ip
  protection (survival comparable to untreated controls): poor protection
[1]; ceftriaxone alone 3.0 μg ip
  protection (survival comparable to untreated controls): poor protection
[1]; ceftriaxone alone 300 μg ip
  protection (survival comparable to untreated controls): poor protection
[1]; ceftriaxone alone 3,000 μg ip, 168 hours
  survival rate: 90%

## LFVESSVKRRPMKTVSQDTNIPIYAQIF [P4]
[2]; P4 5 μg/mL, gamma globulin 1:8, FIG. 1C
  P4-mediated change in OPK over control: no change in OPK
[2]; P4 10 μg/mL, gamma globulin 1:8, FIG. 1C
  P4-mediated increase in OPK over control: 8%
[2]; P4 50 μg/mL, gamma globulin 1:8, FIG. 1C
  P4-mediated increase in OPK over control: 30%
[2]; P4 100 μg/mL, gamma globulin 1:8, FIG. 1C
  P4-mediated increase in OPK over control: 35%
[2]; absence of a complement source (heat-inactivated complement), FIG. 1B
  P4-mediated increase in OPK over control: no increase in OPK
[2]; gamma globulin 1:8 dilution, P4 100 μg/mL, FIG. 1A
  P4-mediated increase in OPK over control: 35%
[2]; gamma globulin 1:32 dilution, FIG. 1A
  P4-mediated increase in OPK over control: paralleling the results obtained for controls
HL-60-derived monocytes
  OPU of N. meningitidis A Ps-coated beads: increase in the OPU; also recorded: increased the OPU
[3]; antibody dilution 1:64
  increase in OPU of S. pneumoniae serotype 14 Ps beads: 52%
[3]; antibody dilution 1:128
  increase in OPU of S. pneumoniae serotype 14 Ps beads: 48%
[3]; antibody dilution 1:256
  increase in OPU of S. pneumoniae serotype 14 Ps beads: 25%
[3]; antibody dilution 1:512
  increase in OPU of S. pneumoniae serotype 14 Ps beads: 5%
[3]; in the presence of QC2, FIG. 2B legend
  OPU of S. pneumoniae serotype 14 Ps-coated beads (in words): increased the OPU
[3]; overall figure, FIG. 2B
  increase in OPU of S. pneumoniae serotype 14 Ps beads: 50%
anti-P4 IgG
  anti-P4 IgG in serum: negative
[4]
  bacteremia in blood samples: no bacteremia
P4 toxicity test in mice
  toxic effect on mice: no apparent toxic effect
[5]
  increase in opsonophagocytic killing over control: > 80% and 80%
[6]
  intraphagocytic respiratory burst (OXYBURST signal): increase in the intraphagocytic respiratory burst; also recorded: increased the respiratory burst
[1]; P4 alone
  protection (survival comparable to untreated controls): poor protection

From patent US9101582B2, “Use of a pneumococcal P4 peptide for enhancing opsonophagocytosis in response to a pathogen” (priority 2008, dated 2015)
